Measurements published in US20200056157A1, “LIVER ORGANOID DISEASE MODELS AND METHODS OF MAKING AND USING SAME” (Children's Hospital Medical Center, priority 2016, published 2020).

Key:
[1] = test system: THP-1; assay: THP-1 cell migration assay with HLO conditioned media; type: cell-based, human; conditions: OA-treated sHLO conditioned media (400, 800 μM OA), 24 hrs in transwells
Method: THP-1 cell migration assay. THP-1 cell, which was gifted from T. Suzuki, was maintained in Advanced DMEM/F12 (Thermo Fisher Scientific Inc.) containing 10% FBS. THP-1 floating cells were collected, and 200,000 cells were added with serum-free Advanced DMEM/F12 to the membrane chamber of the CytoSelect™ 96-Well Cell Migration Assay (5 μm, Fluorometric Format; Cell Biolabs, CA, USA). 10-20 HLO were cultured in HCM media including 0, 400, 800 uM OA with an ultra-low attachment 96 multi-well plate (Corning) for three days. To define the exact number of organoids in each well and lastly normalize the final migrated cells by the number, the organoids were captured on The KEYENCE BZ-X710 Fluorescence Microscope. 150 μL of culture supernatant of HLO was collected and added to the feeder tray of the kit. The kit was incubated at 37° C. for 24 h in a 5% CO2 cell culture incubator. Cells that had migrated were counted using Countess II FL Automated Cell Counter (Thermo Fisher Scientific Inc.). Significance testing was conducted by Student's t-test.

[2] = test system: human liver organoid (HLO); assay: Triglyceride assay; type: cell-based; conditions: 800 μM OA, 3 days
Method: Triglyceride assay. For quantitative determination of triglycerides, HLO were isolated from one Matrigel drop and divided into HCM media in the presence or absence of oleic acid (800 μM). They were cultured on an ultra-Low attachment 6 multi-well plate for three days. Quantitative estimation of hepatic triglyceride accumulation was performed by an enzymatic assay of triglyceride mass using the EnzyChrom Triglyceride assay kit (Bioassay Systems, CA, USA).

[3] = test system: P3NP; assay: P3NP ELISA of HLO culture supernatant; type: cell-based, human; conditions: 800 μM OA, day 5
Method: (§1) Albumin, IL-6, and P3NP ELISA. To measure albumin secretion level of HLO, 200 μL of culture supernatant was collected from HLO embedded in Matrigel. For IL-6 and P3NP, 20-30 organoids were seeded and cultured on an ultra-low attachment multiwell plates 96 well plate (Corning). To define the exact number of organoids in each well and lastly normalize the secreted level for IL-6 and P3NP by the number, the organoids were captured on The KEYENCE BZ-X710 Fluorescence Microscope. The culture supernatants were collected at 24 hrs (for albumin), 96 hrs (for IL-6) and 120 hrs (P3NP) time points after the culture and stored at −80° C. until use. The supernatant was centrifuged at 1,500 rpm for 3 min and to pellet debris, and the resulting supernatant was assayed with Human Albumin ELISA Quantitation Set (Bethyl Laboratories, Inc., TX, USA), Human IL-6 ELISA Kit (Biolegend, CA, USA), and Human N-terminal procollagen III propeptide, PIIINP ELISA Kit (My BioSource, CA, USA) according to the manufacturer's instructions. Significance testing was conducted by Student's t-test.

[4] = test system: IL-6; assay: IL-6 ELISA of HLO culture supernatant; type: cell-based, human; conditions: 800 μM OA treated sHLO culture media
Method: as §1

[5] = test system: TNF-alpha; assay: RT-qPCR of pro-inflammatory cytokine TNF-alpha in HLO; type: cell-based, human; conditions: 200 μM or 800 μM OA, normalized by 18S
Method: (§2) RNA isolation, RT-qPCR. RNA was isolated using the RNeasy mini kit (Qiagen, Hilden, Germany). Reverse transcription was carried out using the SuperScriptIII First-Strand Synthesis System for RT-PCR (Invitrogen, CA, USA) according to manufacturer's protocol. qPCR was carried out using TaqMan gene expression master mix (Applied Biosystems) on a QuantStudio 3 Real-Time PCR System (Thermo Fisher Scientific Inc.). All primers and probe information for each target gene was obtained from the Universal ProbeLibrary Assay Design Center (https://qpcr.probefinder.com/organism.jsp). Significance testing was conducted by Student's t-test.

[6] = test system: human liver organoid (HLO); assay: Lipids live-cell imaging (BODIPY, membrane dye) of FFA treated HLO; type: cell-based; conditions: for effectiveness in inducing lipid accumulation among FFAs (OA, LA, PA, SA): 800 μM, 3 days after FFA exposure, BODIPY
Text: Currently, free fatty acids (FFA) are widely used as an initiating factor to establish an in vitro lipotoxic hepatocyte model; however, fat accumulation is the only phenotype (Kanuri and Bergheim, 2013). […] Given the presence of hepatocyte-, stellate- and Kupffer-like cells with lipid metabolism function-associated genes indicated by global transcriptome analysis, Applicant hypothesized that FFA exposure naturally triggers an inflammation response and resulting fibrotic response in HLO. To test this hypothesis, Applicant treated HLO for 3 to 5 days with FFA. […] To first compare the effect of multiple FFAs including oleic acid (OA, 18:1 n9), linoleic acid (LA, 18:2), palmitic acid (PA, 16:0), and stearic acid (SA, 18:0) on lipids accumulation, live-cell imaging was performed with lipid dye BODIPY at 3 days after the FFA exposure. […] Considering that OA triggers massive lipid accumulation, the concentration of OA was varied (0, 200, 400, and 800 μM) to trigger inflammatory reaction in sHLO. […] In addition to increase in lipid accumulation, the size of lipid droplets was enlarged (FIG. 4, B). Hepatocyte ballooning (enlargement) was one of the pathological grading indicators to determine the nonalcoholic steatohepatitis (NASH) activity (NAS scoring), which was confirmed in 800 μM OA treated sHLO by live imaging of cellular membrane (FIG., 4B). Triglycerides, a main constituent of lipids accumulated in the liver, were also detected in 800 μM treated sHLO, but not in untreated sHLO (FIG. 4, D). […] As FIG. 9 indicates, neither E-cad positive nor negative cells derived spheroids produced P3NP and IL-6 secreted production and overexpressed the gene expression of inflammatory markers.
(§3) Phagocyte, lipids, ROS live-cell imaging. After being cultured in an ultra-low attachment 6 multi-well plate, 5-10 HLO were picked up and seeded in a Microslide 8 Well Glass Bottom plate (Ibidi, WI, USA) and subjected to live-cell staining. The following antibodies were used: pHrodo® Red S. aureus Bioparticles® Conjugate for Phagocyte activity (Thermo Fisher Scientific Inc.), BODIPY® 493/503 for lipids (Thermo Fisher Scientific Inc.), Di-8-ANEPPS for membrane (Thermo Fisher Scientific Inc.), and CellROX green reagent for ROS detection (Thermo Fisher Scientific Inc.). […] The final lipid droplet volume was calculated by IMARIS8 and normalized by each organoid size. Significance testing for lipid droplet volume and ROS production (%) was conducted by Student's t-test.
LPS and FFA exposure and OCA and FGF19 treatment. 20-30 HLO, which had been isolated from Matrigel and washed by 1×PBS, were divided into each condition and cultured on an ultra-low attachment 6 multi-well plates (Corning). HLO were cultured with LPS (Sigma), OA (Sigma), LA (Sigma), SA (Sigma), or PA (Sigma) and collected at day 1 and 3 (for LPS HLO) and at day 3 and 5 (for OA) after the culture. To test the inhibitory effect of OCA (INT-747, MedChem Express, NJ, USA) and human FGF19 recombinant (Sigma) on HLO, 20-30 HLO were cultured in HCM media in the presence or absence of oleic acid (800 μM), and 1 μM OCA and 40 ng/ml FGF19 were added into 800 μM OA condition. HLO were collected at day 3 for lipids live-cell imaging and at day 5 for stiffness measurement.

[7] = test system: IL-8; assay: RT-qPCR of pro-inflammatory cytokine IL-8 in HLO; type: cell-based, human; conditions: 200 μM or 800 μM OA, normalized by 18S
Method: as §2

[8] = test system: human liver organoid (HLO); assay: Masson trichrome stain of HLO; type: cell-based
Method: To further determine whether HLO progresses towards fibrosis-like condition, Applicant performed Masson trichrome stain on sHLO and cHLO. […] Moreover, ELISA of […] was also measured at day 5 of OA exposure. […] secretion was increased 2.8-fold in the culture media of 800 μM OA treated HLO when compared with the untreated (FIG. 4, J).

[9] = test system: human liver organoid (HLO); assay: HLO stiffness measurement by AFM; type: cell-based
Text: Applicant's preliminary qualitative analysis of smooth muscle actin immunostaining indicates dose dependent fibrosis progression by OA exposure (FIG. 2, H, I, and J). To gain more quantitative insights in a screenable format, Applicant thus assessed in the living state whether HLO fibrosis could increase the stiffness in a dose dependent fashion using micro-indentation with Atomic Force Microscopy (AFM). […] The Emedian values were 1.2 kPa, 1.6 kPa, 2.4 kPa and 2.8 kPa for 0, 200, 400, and 800 μM OA-treated organoids, respectively. Furthermore, difference between 90th percentile and 10th percentile (ΔP90-10) was 3.2 kPa for untreated organoids and 7.0 kPa for 800 μM OA-treated organoids was observed.
HLO stiffness measurement by AFM. HLOs treated with […] were used for stiffness measurement with a AFM (NanoWizard IV, JPK Instruments, Germany). The AFM head with a silicon nitride cantilever (CSC37, k=0.3 N/m, MikroMasch, Bulgaria) was mounted on a fluorescence stereo microscope (M205 FA, Leica, Germany) coupled with a Z-axis piezo stage (JPK CellHesion module, JPK Instruments, Germany), which allows the indentation measurement up to the depth of ˜100 μm. As a substrate for organoids, a fibronectin-coated dish was used. The tissue culture dish (p=34 mm, TPP Techno Plastic Products, Switzerland) was first incubated with a 1 μg/mL fibronectin solution (Sigma)) at 4° C. for overnight. Then, the tissue culture dish was washed twice by distilled water and dried for 1 hour. Thereafter, HLOs incubated with […] were deposited to the fibronectin-coated dish and incubated for 1 hour at 37° C. The sample dish was then placed onto the AFM stage, and force-distance curves in a 14×14 matrix in a 25×25 μm square were measured from each HLO. Finally, Young's moduli (E, Pa) of HLO were determined by fitting the obtained force-distance curves with the modified Hertz model (Sneddon, 1965). Dunn-Holland-Wolfe test was performed for significance testings.

[10] = test system: human iPSC-liver organoid; assay: RA-based liver organoid differentiation (organoid number, size, luminal structure); type: cell-based; conditions: 4 days RA
Text: To elucidate whether RA signaling has an impact on determining the lineage differentiation towards stromal cells, Applicant established a liver organoid model from human iPSCs by transient induction of RA. Applicant initially differentiated iPSCs to foregut spheroids through definitive endoderm (DE) specification as previously described (Spence et al., 2011). The foregut spheroids were mixed with the attached cells grown in the same well, and the mixture was embedded in Matrigel. […] The number of organoids was increased 1.8-fold in RA treated wells compared to untreated and the size was increased 1.5-fold after RA treatment (FIG. 1, B, C, and D). […] Of note, albumin secretion was maintained more than 40 days after day 20 when albumin was first detected (data not shown).
HLO induction. At day 7, spheroids and attached cells are gently pipetted to be delaminated from dishes. They were centrifuged at 800 rpm for 3 minutes, embedded in a 100% Matrigel drop on the dishes in Advanced DMEM/F12 with B27, N2 and 2 uM retinoic acid (RA; Sigma, MO, USA) after removing supernatant, and cultured for 4 days. After RA treatment, spheroids embedded in the Matrigel drop were cultured in Hepatocytes Culture Medium (HCM; Lonza, MD, USA) with 10 ng/mL hepatocyte growth factor (HGF; PeproTech, NJ, USA), 0.1 uM Dexamethasone (Dex; Sigma) and 20 ng/mL Oncostatin M (OSM; R&D Systems). Cultures for HLO induction were maintained at 37° C. in 5% CO2 with 95% air and the medium was replaced every 2-3 days. To analyze HLO (day 20-30), organoids were isolated from Matrigel by scratching and pipetting.

[11] = test system: human iPSC-liver organoid; assay: Albumin ELISA of organoid culture supernatant; type: cell-based; conditions: 4 days RA; supernatant collected in 24 hrs
Method: as §1

[12] = test system: liver organoids; assay: ROS live-cell imaging of liver organoids; type: cell-based, human
Text: as §3

SMILES: CCCCCCCC/C=C\CCCCCCCC(=O)O [OA, oleic acid]
- THP-1 migration cells, increase [1]: up to 2 fold
- triglycerides [2]: detected
- P3NP secretion compared with the untreated [3]: 2.8 fold
- IL-6 secretion compared to the untreated [4]: 2.2 fold
- TNF-alpha gene expression increase [5]: 2 fold
- lipid accumulation, increase in sHLO ([6]; 0, 200, 400, 800 μM OA, 3 days, dose dependent): up to 18 fold
- hepatocyte ballooning (enlargement) ([6]; 800 μM OA treated sHLO, live imaging of cellular membrane): confirmed
- effectiveness in inducing lipid accumulation among FFAs (OA, LA, PA, SA) [6]: most effective
- size of lipid droplets ([6]; OA treated sHLO, 3 days): enlarged
- IL-8 gene expression increase [7]: 10 fold
- trichrome positive HLO ([8]; cHLO (OA 5 days)): significantly increased
- trichrome positive HLO ([8]; sHLO (OA 3 days)): not observed
- Young's modulus, Emedian ([9]; 200 μM OA): 1.6 kPa
- Young's modulus, Emedian ([9]; 400 μM OA): 2.4 kPa
- Young's modulus, Emedian ([9]; 800 μM OA): 2.8 kPa
- difference between 90th percentile and 10th percentile (ΔP90-10) of Young's modulus ([9]; 800 μM OA): 7.0 kPa

SMILES: CC1=C(/C=C/C(C)=C/C=C/C(C)=C/C(=O)O)C(C)(C)CCC1 [RA, retinoic acid]
- number of organoids, increase compared to untreated ([10]; day 20): 1.8 fold
- organoid size, increase after treatment ([10]; day 20): 1.5 fold
- organoids with internal luminal structure ([10]; day 25): 95%
- albumin secretion [11]: 3.0 to 6.5 µg/mL

SMILES: CCCCCCCCCCCCCCCCCC(=O)O [SA, stearic acid]
- effectiveness in inducing lipid accumulation among FFAs (OA, LA, PA, SA) [6]: least effective

SMILES: Oc1ccc(C=Cc2cc(O)cc(O)c2)cc1 [resveratrol]
- effect on ROS production of liver organoids [12]: No effectiveness
